The record followed here is patent US4148919A, “7-Amino-6,7-dihydro [5H]benzocycloheptene derivatives” (Roussel Uclaf, priority 1975, dated 1979).

For data set [1], the system named is mice. In words: Potentialization of effects of monoamine oxidase inhibitor (nialamide hyperactivity, actimetry). The class given is in vivo. Details: key: ++: expressed in increasing number of + signs for a determined dose in mg/kg; +++: expressed in increasing number of + signs for a determined dose in mg/kg. As to conditions: 30 minutes after nialamide 100 mg/kg i.p., actimetry for 6 hours. As for the experimental part:
The administration of a monoamine oxidase inhibitor to mice induces a hyperactive movement of the animals which is able to be potentialized by an antidepressant. Using the procedure of Carlsson et al. [Brain Research, Vol. 12 (1969), p. 456], a dose of 100 mg/kg of nialamide was intraperitoneally administered to mice 30 minutes before the intraperitoneal administration of the tested product and the values of actimetric measurements were recorded every 30 minutes for 6 hours. Potentiation of the effects of nialamide for the tested product was expressed in increasing number of + signs for a determined dose in mg/kg.

Data set [2] concerns mice. In words: Potentiation of effects of L-dopa in iproniazide-pretreated mice. Type of data set: in vivo. The settings on record: male mice, intraperitoneal, iproniazide 75 mg/kg 18 hours before, L-dopa 100 mg/kg i.p. one hour after product; 60 min. As for the experimental part:
The administration of L-dopa to mice pretreated 18 hours previously with iproniazide produced certain number of symptoms; muscular hypertonicity, hyperactivity, agitation, crying, aggressiveness, salivation and exophthalmy. The intensity of these effects is potentiated by administration of an antidepressant one hour before the administration of L-dopa. Male mices received intraperitoneally 75 mg/kg of iproniazide 18 hours before the start of the test and the tested product was intraperitoneally administered in aqueous solution in increasing doses. One hour later, L-dopa was intraperitoneally administered at a dose of 100 mg/kg and the different symptoms were observed 15 and 30 minutes later. They were evaluated on a scale of 0 to 3 for each animal and the totals for each dose were determined. The ED50 dose which potentiates by 50% the L-dopa effects was determined to be about 20 mg/kg for the product of Example 1.

For data set [3], the system named is mice. In words: Acute toxicity. The class given is in vivo. The settings on record: intraperitoneal administration, determined 48 hours later. As for the experimental part:
The DL50 dose which kills 50% of mice after intraperitoneal administration of the tested compound was determined 48 hours later and the DL50 for the compound of Example 1 was about 75 mg/kg.

Data set [4] has as its system serotonine (5HT) uptake. In words: Inhibition of Serotonine uptake in vitro (impure brain synaptosomes). The settings on record: female rat brain synaptosomes, 37° C. 5 minutes, 14C-5HT 10^-7 M. Type of data set: biochemical. How it is done: (§1) The inhibition of serotonine (5HT) uptake was measured in impure synaptosomes prepared from the entire brain of a female rat 19 to 21 days old using the technique of Kannengiesser et al. [Biochemical Pharmacology,Vol. 22, (1973) p. 73].

For data set [5], the system named is serotonine (5HT) uptake. Put plainly: Inhibition of Serotonine uptake in vivo (synaptosomes from treated rats). More on the design: species or system rat; key: the activity was expressed in increasing number of + signs. The settings on record: 20 mg/kg intraperitoneal, female rats, brain removed after 30 minutes. How it is done:
as §1
The tested products were intraperitoneally administered to groups of female rats 19 to 21 days old at doses of 5 to 20 mg/kg. After 30 minutes, the brain was removed and synaptosomes were prepared and placed in an incubator in the presence of 14 C-5HT as indicated in the previous test.

For “7-amino-6,7-dihydro [5H] benzocycloheptene-hydrochloride [Example 1]”, the “Potentiation of the effects of nialamide” value is recorded as “++” in the data set on mice [1] (5 mg/kg intraperitoneal) and “+++” with mice [1] (20 mg/kg intraperitoneal). Also, in the data set on mice [2], the “ED50 dose which potentiates by 50% the L-dopa effects” value is given as “about 20 mg/kg”. Also, the “DL50 dose which kills 50% of mice” value in the data set on mice [3] is given as “about 75 mg/kg”. The same substance registered an IC50 with serotonine (5HT) uptake [4] of around 2400 nM. Further, in the data set with serotonine (5HT) uptake [5], the “Relative power to inhibit the uptake of 14C-5HT” value was “+”.
